From patent US10696693B2, “Fused imidazole derivatives as TGF-beta inhibitors” (Rigel Pharmaceuticals, Inc., priority 2014, dated 2020)
Read-outs that look alike come from different tables or passages of the source.

Experiments:
[1] = test system: GDF8; assay: AlphaScreen SureFire p-SMAD3 (Ser423/425) assay, GDF8-stimulated cells; assay type: cell-based
Outline: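 Lysate (5 μL) went into 384-well shallow plates with 5 μL of Reaction Buffer, Activation Buffer and AlphaScreen Acceptor bead mix. Plates were sealed, kept dark and shaken for 2 hours at room temperature. Donor beads in dilution buffer (2 μL) were added for another 1½ hours, and p-SMAD3 signal was read on a Synergy-4 or Enspire reader.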

[2] = test system: TGF-β; assay: AlphaScreen SureFire p-SMAD3 (Ser423/425) assay, TGF-β-stimulated cells; assay type: cell-based
Outline: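 The p-SMAD-3 (Ser423/425) SureFire assay measured phosphorylation of endogenous SMAD-3 in cell lysates. Cells were plated overnight in collagen-coated plates, exposed to three-fold serially diluted compounds for about 10 minutes, then stimulated with TGFβ. Lysates (5 μL) received acceptor bead mix for 2 hours, then donor beads for 1½ hours before AlphaScreen reading.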

[3] = Mus musculus, MPC-11, read-out: GDF8: inhibition of GDF8 signaling, GDF pSMAD (MPC11), p-SMAD3 (Ser423/425) AlphaScreen in cell lysate, GDF8 stimulation
[4] = Mus musculus, MPC-11, read-out: TGF-β: inhibition of TGF-β signaling, TGF-β pSMAD (MPC-11), p-SMAD3 (Ser423/425) AlphaScreen in cell lysate, TGF-β stimulation
[5] = Mus musculus, MPC-11, p-SMAD3 (Ser423/425) AlphaScreen in cell lysate, MPC11, GDF8 stimulation, read-out: GDF8: inhibition of GDF8 signaling, GDF pSMAD (MPC11)
[6] = Mus musculus, p-SMAD3 (Ser423/425) AlphaScreen in cell lysate, MPC-11, TGF-β stimulation, read-out: TGF-β: inhibition of TGF-β signaling, TGF-β pSMAD (MPC-11)

Row | Structure (SMILES) | IC50 [1, 5] [nM] | IC50 [2, 6] [nM] | further results
1 | Cc1cc(F)c(Cl)cc1-c1nc2n(c1-c1ccc3nccnc3c1)CCC2 [Compound 298, 6-(2-(5-chloro-4-fluoro-2-methylphenyl)-6,7-dihydro-5H-pyrrolo[1,2-a]imidazol-3-yl)quinoxaline] | – | – | IC50 [1, 3]: 100 to 1000 nM; IC50 [2, 4]: > 1000 nM
2 | Fc1cc(F)c(-c2nc3n(c2-c2ccc4[nH]ncc4c2)CCC3)cc1F [Compound 220, 5-(2-(2,4,5-trifluorophenyl)-6,7-dihydro-5H-pyrrolo[1,2-a]imidazol-3-yl)-1H-indazole] | 50 to 100 | 100 to 1000 | –
3 | c1ccc(C2=C(c3ccc4[nH]ncc4c3)C3CCCC3=N2)nc1 (centres unmarked) [Compound 365, 5-(2-(pyridin-2-yl)-3a,4,5,6-tetrahydrocyclopenta[b]pyrrol-3-yl)-1H-indazole] | < 50 | < 50 | –
4 | Cc1cc(-c2nc3n(c2-c2ccc4ncsc4c2)CCC3)cc(C)c1Cl [Compound 244, 6-(2-(4-chloro-3,5-dimethylphenyl)-6,7-dihydro-5H-pyrrolo[1,2-a]imidazol-3-yl)benzo[d]thiazole] | > 1000 | > 1000 | –
5 | Cc1cc(F)ccc1-c1nc2n(c1-c1ccc3[nH]ncc3c1)CCC2 [Compound 292, 5-(2-(4-fluoro-2-methylphenyl)-6,7-dihydro-5H-pyrrolo[1,2-a]imidazol-3-yl)-1H-indazole] | – | – | IC50 [1, 3]: > 1000 nM; IC50 [2, 4]: > 1000 nM
6 | Fc1ccc(-c2nc3n(c2-c2ccc4nccnc4c2)CCC3)cc1F [Compound 208, 6-(2-(3,4-difluorophenyl)-6,7-dihydro-5H-pyrrolo[1,2-a]imidazol-3-yl)quinoxaline] | 100 to 1000 | > 1000 | –
7 | Cc1cc(-c2nc3n(c2-c2ccc4ncccc4c2)CCC3)c(Cl)cc1F [Compound 322, 6-(2-(2-chloro-4-fluoro-5-methylphenyl)-6,7-dihydro-5H-pyrrolo[1,2-a]imidazol-3-yl)quinoline] | – | – | IC50 ([1]; read-out: GDF8: inhibition of GDF8 signaling, GDF pSMAD (MPC11), p-SMAD3 (Ser423/425) AlphaScreen in cell lysate, GDF8 stimulation): > 1000 nM; IC50 ([2]; read-out: TGF-β: inhibition of TGF-β signaling, TGF-β pSMAD (MPC-11), p-SMAD3 (Ser423/425) AlphaScreen in cell lysate, TGF-β stimulation): > 1000 nM
8 | Fc1ccc(-c2nc3occn3c2-c2ccc3nccnc3c2)cc1 [Compound 130, 6-(4-fluorophenyl)-5-(quinoxalin-6-yl)imidazo[2,1-b]oxazole] | 100 to 1000 | 100 to 1000 | –
9 | Fc1ccc(-c2nc3n(c2-c2ccc4nccnc4c2)CCC3)c(F)c1F [Compound 224, 6-(2-(2,3,4-trifluorophenyl)-6,7-dihydro-5H-pyrrolo[1,2-a]imidazol-3-yl)quinoxaline] | 100 to 1000 | > 1000 | –
10 | Fc1ccc(-c2nc3n(c2-c2ccc4nnc(C(F)(F)F)n4c2)CCC3)c(F)c1F [Compound 35] | > 1000 | > 1000 | –
11 | Fc1cc(F)c(-c2nc3n(c2-c2ccc4ncc(OCCN5CCOCC5)nc4c2)CCN3)cc1F [Compound 122, 4-(2-((7-(6-(2,4,5-trifluorophenyl)-2,3-dihydro-1H-imidazo[1,2-a]imidazol-5-yl)quinoxalin-2-yl)oxy)ethyl)morpholine] | 50 to 100 | 100 to 1000 | –
12 | Cc1c(F)ccc(-c2nc3n(c2-c2ccc4[nH]ncc4c2)CCC3)c1F [Compound 280, 5-(2-(2,4-difluoro-3-methylphenyl)-6,7-dihydro-5H-pyrrolo[1,2-a]imidazol-3-yl)-1H-indazole] | 50 to 100 | 100 to 1000 | –
13 | Cc1cccc(-c2nc3n(c2-c2ccc4nccn4c2)CCC3)c1 [Compound 1, 6-(2-(m-tolyl)-6,7-dihydro-5H-pyrrolo[1,2-a]imidazol-3-yl)imidazo[1,2-c]pyridine] | 50 to 100 | 100 to 1000 | –
14 | OCC1Cn2c(nc(-c3cc(F)cc(F)c3F)c2-c2ccc3ncccc3c2)N1 (centres unmarked) [Compound 123, (5-(quinolin-6-yl)-6-(2,3,5-trifluorophenyl)-2,3-dihydro-1H-imidazo[1,2-a]imidazol-2-yl)methanol] | 50 to 100 | 100 to 1000 | –
15 | Cc1cc(F)c(-c2nc3n(c2-c2ccc4[nH]ncc4c2)CCC3)cc1F [Compound 284, 5-(2-(2,5-difluoro-4-methylphenyl)-6,7-dihydro-5H-pyrrolo[1,2-a]imidazol-3-yl)-1H-indazole] | – | – | IC50 [1, 3]: > 1000 nM; IC50 [2, 4]: > 1000 nM
16 | FC(F)(F)c1cccc(-c2nc3n(c2-c2ccc4nccn4c2)CCC3)c1 [Compound 4] | 100 to 1000 | 100 to 1000 | –
17 | Fc1ccc(-c2nc3occn3c2-c2ccc3cn[nH]c3c2)c(F)c1 [Compound 155, 6-(2,4-difluorophenyl)-5-(1H-indazol-6-yl)imidazo[2,1-b]oxazole] | 50 to 100 | 100 to 1000 | –

Row | Structure (SMILES) | IC50 [1, 5] [nM] | IC50 [2, 6] [nM] | further results
18 | Cc1cc(-c2nc3n(c2-c2ccc4nccnc4c2)CCC3)c(F)cc1F [Compound 270, 6-(2-(2,4-difluoro-5-methylphenyl)-6,7-dihydro-5H-pyrrolo[1,2-a]imidazol-3-yl)quinoxaline] | < 50 | 50 to 100 | –
19 | Fc1cc(F)c(F)c(-c2nc3n(c2-c2ccc4ncccc4c2)CCC3)c1 [Compound 237, 6-(2-(2,3,5-trifluorophenyl)-6,7-dihydro-5H-pyrrolo[1,2-a]imidazol-3-yl)quinoline] | 100 to 1000 | > 1000 | –
20 | Cc1cc(-c2nc3n(c2-c2ccc4ncsc4c2)CCC3)cc(Cl)c1F [Compound 273, 6-(2-(3-chloro-4-fluoro-5-methylpheny)-6,7-dihydro-5H-pyrrolo[1,2-a]imidazol-3-yl)benzo[d]thiazole] | > 1000 | > 1000 | –
21 | Fc1ccc(-c2nc3n(c2-c2ccc4nccn4c2)CCC3)cc1F [Compound 10] | 100 to 1000 | > 1000 | –
22 | Fc1cccc(-c2nc3n(c2-c2ccc4ncccc4c2)CCC3)c1 [Compound 209, 6-(2-(3-fluorophenyl)-6,7-dihydro-5H-pyrrolo[1,2-a]imidazol-3-yl)quinoline] | 100 to 1000 | > 1000 | –
23 | Fc1cc(Cl)c(-c2nc3n(c2-c2ccc4nccn4c2)CCC3)cc1F [Compound 50] | 50 to 100 | 100 to 1000 | –
24 | CC(=O)N1c2nc(-c3cc(F)cc(F)c3F)c(-c3ccc4ncnn4c3)n2CC1C(=O)O (centres unmarked) [Compound 119, 5-([1,2,4]triazolo[1,5-a]pyridin-6-yl)-1-acetyl-6-(2,3,5-trifluorophenyl)-2,3-dihydro-1H-imidazo[1,2-a]imidazole-2-carboxylic acid] | < 50 | < 50 | –
25 | Fc1cc(F)c(-c2nc3n(c2-c2ccc4nccn4c2)CCN3)cc1F [Compound 108, 6-(6-(2,4,5-trifluorophenyl)-2,3-dihydro-1H-imidazo[1,2-a]imidazol-5-yl)imidazo[1,2-a]pyridine] | < 50 | < 50 | –
26 | Cc1cc(-c2nc3n(c2-c2ccc4nccnc4c2)CCC3)c(F)cc1Cl [Compound 254, 6-(2-(4-chloro-2-fluoro-5-methylpheny)-6,7-dihydro-5H-pyrrolo[1,2-a]imidazol-3-yl)quinoxaline] | > 1000 | > 1000 | –
27 | Fc1ccc(-c2nc3occn3c2-c2ccc3ncsc3c2)c(F)c1F [Compound 161, 5-(benzo[d]thiazol-6-yl)-6-(2,3,4-trifluorophenyl)imidazo[2,1-b]oxazole] | 50 to 100 | 100 to 1000 | –
28 | NC(=O)c1cnc2ccc(-c3c(-c4cc(F)c(F)c(F)c4)nc4n3CCC4)cn12 [Compound 53, 6-(2-(3,4,5-trifluorophenyl)-6,7-dihydro-5H-pyrrolo[1,2-a]imidazol-3-yl)imidazo[1,2-a]pyridine-3-carboxamide] | – | – | IC50 [1, 3]: 50 to 100 nM; IC50 [2, 4]: 50 to 100 nM
29 | Cc1cc(-c2nc3n(c2-c2ccc4ncnn4c2)CCC3)cc(C)c1F [Compound 42, 6-(2-(4-fluoro-3,5-dimethylphenyl)-6,7-dihydro-5H-pyrrolo[1,2-a]imidazol-3-yl)-[1,2,4]triazolo[1,5-a]pyridine] | > 1000 | > 1000 | –
30 | OCC1Cn2c(nc(-c3cc(F)cc(F)c3F)c2-c2ccc3ncnn3c2)N1 (centres unmarked) [Compound 121, (5-([1,2,4]triazolo[1,5-a]pyridin-6-yl)-6-(2,3,5-trifluorophenyl)-2,3-dihydro-1H-imidazo[1,2-a]imidazol-2-yl)methanol] | < 50 | < 50 | –
31 | Cc1ccccc1-c1nc2n(c1-c1ccc3ncnn3c1)CCC2 [Compound 62, 6-(2-(2-methylphenyl)-6,7-dihydro-5H-pyrrolo[1,2-a]imidazol-3-yl)-[1,2,4]triazolo[1,5-a]pyridine] | – | – | IC50 [1, 3]: > 1000 nM; IC50 [2, 4]: > 1000 nM
32 | COc1ccc(-c2nc3n(c2-c2ccc4ncccc4c2)CCC3)cc1 [Compound 352, 6-(2-(4-methoxyphenyl)-6,7-dihydro-5H-pyrrolo[1,2-a]imidazol-3-yl)quinoline] | – | – | IC50 [1, 3]: > 1000 nM; IC50 [2, 4]: > 1000 nM
33 | Fc1ccc(-c2nc3n(c2-c2ccc4ncsc4c2)CCC3)c(F)c1F [Compound 226, 6-(2-(2,3,4-trifluorophenyl)-6,7-dihydro-5H-pyrrolo[1,2-a]imidazol-3-yl)benzo[d]thiazole] | – | – | IC50 [1, 3]: 100 to 1000 nM; IC50 [2, 4]: 100 to 1000 nM
34 | Cc1cc(F)c(-c2nc3n(c2-c2ccc4nccn4c2)CCC3)cc1F [Compound 48, 6-(2-(2,5-difluoro-4-methylphenyl)-6,7-dihydro-5H-pyrrolo[1,2-a]imidazol-3-yl)imidazo[1,2-c]pyridine] | > 1000 | > 1000 | –
